Laboratory results from patent US20100227841A1, “Patient populations and treatment methods” (Harbor BioSciencs, Inc., priority 2008, published 2010).

Test system: female NOD mice
Assay: Spontaneous autoimmune diabetes in non-obese diabetic (NOD) mouse model
Assay type: in vivo
Details: for Insulitis Score/Islet (H&E) / β-Cell Score/Islet (Insulin): scale of 0 to 3
Excerpt: Treatment of spontaneous autoimmune diabetes in non-obese diabetic (NOD) mouse model. The NOD model is used as an animal model for human type 1 diabetes. The NOD mouse strain spontaneously develops autoimmune (type 1) diabetes by a process that has similarities to human type 1 diabetes mellitus, e.g., immune-mediated selective destruction of the pancreatic islet 13-cells that produce insulin (M. A. Atkinson and N. K. Maclaren, New England J. Medicine, 331:1428-1436 1994). There is a higher incidence of diabetes (i.e., hyperglycemia, glucosuria, and hypoinsulinemia) in female vs. male NOD mice (80-90% vs. 10-20%, respectively). Disease incidence in this animal model is first observed at approximately 12 to 15 weeks of age with maximum incidence usually peaking 5 to 6 weeks later.
Methods. An oral formulation containing 17α-ethynylandrost-5-ene-3β,7β,17β-triol in 30% w/v β-cyclodextrin sulfobutyl ether sodium salt (Captisol®; CyDex, Inc., Overland Park, Kans.) was used. Six-week old female NOD mice (approximately 20-25 grams) were purchased from The Jackson Laboratories (Bar Harbor, Me.) and housed in a vivarium under pathogen-free conditions. The animals were acclimated for at least one week prior to initiation of oral dosing with 17α-ethynylandrost-5-ene-3β,7β,17β-triol. Animals were randomized into 5 per cage upon receipt and cages were subsequently randomized into dosing groups.
Female NOD mice were treated once daily with vehicle, 17α-ethynylandrost-5-ene-3β,7β,17β-triol (20 or 80 mg/kg in 100 μL, p.o.), or dexamethasone (0.25 mg/kg, 100 μL, i.p.) from 15 to 25 weeks of age (i.e., before the first incidence of diabetes; at the University of Catania), from 13 to 19 weeks of age (2 days after the first incidence of diabetes), or from 12 to 26 weeks of age (9 days after the first incidence of diabetes). Blood glucose was monitored using glucometers (ENCORE Glucometer, Bayer Corp., Elkhart, Ind.) at weekly intervals, beginning at 10 weeks of age. Mice with blood glucose levels 200 mg/dL on two consecutive occasions were considered diabetic. The percentage of animals with diabetes over the course of the experiment was monitored.
Histological assessment of insulitis and functional 13-cell content was assessed at the time of disease diagnosis or at the end of the 26-week study (i.e., disease-free mice). Pancreata (after CO2 euthanasia) were immediately isolated and placed in 10% buffered formalin at room temperature overnight, and then embedded in paraffin. After de-paraffinizing, pancreas samples were rehydrated and 5 μm sections were prepared and fixed on glass slides. Some sections were stained with hematoxylin and eosin (H&E) while others were stained with anti-insulin antibody as follows; prepared sections were immersed in Tris-Buffered Saline (TBS: 10 mM Tris buffer, pH 7.4, 0.15 M NaCl) containing 1% of bovine serum albumin (BSA) and 5% normal goat serum for 2 h at room temperature followed by incubation with 2 μg/mL rat anti-insulin IgG2a monoclonal antibody (MAB1417; R&D Systems, Minneapolis, Minn.) in TBS/1% BSA overnight at 4° C. in a humidified chamber. After washing with TBS/0.5 Tween-20, sections were covered with biotinylated anti-rat IgG secondary antibody (BD biosciences, 1:1,000) for 1 h at room temperature, followed by washing with TBS/Tween-20 and incubation with streptavidin-horseradish peroxidase for 30 min. Sections were then incubated with chromogen substrate, DAB (BD Biosciences), for 5 min and counterstained with hematoxylin. The degree of insulitis (leukocyte infiltration per islet; H&E) and functional 13-cell content per islet (insulin production) was scored using a scale of 0 to 3 in which 0=none, 1=few, 2=moderate, 3=high content of inflammatory cells or functional β-cells. Pancreata that were scored were obtained from a randomly-selected portion of mice from each cohort and scores were reported as the mean±SEM for each cohort.

SMILES: C#C[C@]1(O)CC[C@H]2[C@@H]3[C@@H](O)C=C4C[C@@H](O)CC[C@]4(C)[C@H]3CC[C@@]21C [17α-ethynylandrost-5-ene-3β,7β,17β-triol]
- Disease Incidence (20 mg/kg p.o. once daily): 0.78 ± 0.15
- No. Islets/pancreas (H&E) (20 mg/kg p.o. once daily): 2.4 ± 0.9
- Insulitis Score/Islet (H&E) (20 mg/kg p.o. once daily): 2.5 ± 0.3
- β-Cell Score/Islet (Insulin) (20 mg/kg p.o. once daily): 1.5 ± 0.4
- effect on disease incidence (20 mg/kg, differs from 80 mg/kg, p=0.009 Fischer's Exact test): ineffective
- Disease Incidence (80 mg/kg p.o. once daily): 0.17 ± 0.17
- No. Islets/pancreas (H&E) (80 mg/kg p.o. once daily): 8.0 ± 3.1
- Insulitis Score/Islet (H&E) (80 mg/kg p.o. once daily): 0.8 ± 0.4
- β-Cell Score/Islet (Insulin) (80 mg/kg p.o. once daily): 2.6 ± 0.4
- progressive increase in disease incidence (80 mg/kg single daily oral doses started 2 days or 9 days after first incidence of diabetes): suppressed
- disease incidence relative to vehicle, meta-analysis across all studies (80 mg/kg, p=0.007 Fischer's Exact test): significant decrease
- mean±SEM body weights (Week 25, 20 mg/kg): 24.6 ± 0.8 g
- mean±SEM body weights (Week 25, 80 mg/kg): 24.7 ± 0.3 g
- first incidence of diabetes (week 19, once daily treatment from 15 to 25 weeks of age (vehicle 25%)): 8%
- mean±SEM body weights (week 31, end of study): 24.3 ± 0.6 g
- maximum disease incidence during treatment (weeks 23 through 25 (vehicle 66%), p<0.05 Chi-Squared test): 25%
